These are literature values, as cited in patent US20230165838A1, “TREATMENT FOR ACUTE RESPIRATORY DISTRESS SYNDROME” (DIMERIX BIOSCIENCE LTD., priority 2020, published 2023).

SMILES strings stand for the structures.

The subject of this data set is monocytes. To be noted: MCP-1 induced; mechanism seems to require GPI-anchored proteins such as CD55, CD59 and CD16 (Yokochi, S. 2001).

With `O=C(O)C[CH2][Ge](=[O])[O][Ge](=[O])[CH2]CC(=O)O` [Propagermanium, 3-[(2-Carboxyethyl-oxogermyl)oxy-oxogermyl]propanoic acid], the “in vitro chemotactic migration of monocytes by MCP-1” value is listed as “specifically inhibit”.
